The values that follow come from patent US11434225B2, “Salts and solid state forms of plinabulin” (PLIVA HRVATSKA D.O.O., priority 2017, dated 2022).

The conditions of this series: solid state form.

For `CC(C)(C)c1[nH]cnc1/C=c1\[nH]c(=O)/c(=C/c2ccccc2)[nH]c1=O` [Plinabulin Form G], under “upon exposure to humidity”, the “stability upon exposure to humidity” value is “shows stability”. In addition, under “upon heating”, the stability upon heating entry is listed as “shows stability”.
